The values below come from US20250295609A1, “COMPOUND HAVING ANTI-ANDROGEN RECEPTOR ACTIVITY, AND USE THEREOF” (NANJING MINOVA PHARMACEUTICAL CO., LTD., priority 2022, published 2025).

Series [1] in a line: Pharmacokinetic study, single oral administration to SD rats. The conditions noted are these: for AUC(0-t) / Cmax / Tmax / half-life: male, SD, rat, po, 50 mg/kg.
Description: Experimental method: Male SD rats were randomly grouped (3 rats per group), given ad libitum access to water during the assay, fasted for 12 or more hours before administration, and given food 4 hours after administration.
The blood was centrifuged within 60 min of being collected to isolate plasma (centrifuged at 8000 rpm at 2-8° C. for 5 min). After the centrifugation, the plasma was transferred to a 96-well plate or centrifuge tubes, transported in a box with ice, and stored at ≤−15° C. before LC-MS/MS analysis. The drug concentration in the plasma of SD rats was measured by LC-MS/MS bioanalysis, and the plasma concentration-time data were analyzed using WinNonlin™ (Version 8.3, Certara, USA) and a non-compartmental model to evaluate the pharmacokinetic (PK) profiles of the compounds in SD rats.
Series [2] has as its system human prostate cancer cells LNCaP. Put plainly: Cell viability inhibition assay (CTG) on LNCaP cells in presence of DHT. The conditions noted are these: Homo sapiens, 120 h, read-out: Inhibitory activity against human prostate cancer cell LNCaP IC50. The series is classed as cell-based. The text has this: Human prostate cancer cells LNCaP and human prostate cancer cells 22Rvl are present in patients with prostate cancer. An androgen, DHT, is able to promote the growth of human prostate cancer cells LNCaP. Using the cell model described above was intended to study the inhibitory effects of the compounds of the present disclosure on the growth of human prostate cancer cells (human prostate cancer cells LNCaP and human prostate cancer cells 22Rvl) in the presence or absence of DHT.
The medium in the culture dish was discarded, and 5 mL of trypsin was added for digestion for about 3 mins. The digestion was stopped by adding 10 mL of a fresh medium. The cells were fully pipetted and transferred to a 15 mL centrifuge tube, and the cells were collected by centrifugation at 1000 rpm for 5 mins. The cells collected by centrifugation were resuspended in 11 mL of a fresh medium. 1 mL of the cells was taken and counted, and the cell viability was detected. The cell density was adjusted to 1×10^4 cells/mL by adding an appropriate amount of the medium. The cells were seeded in a 96-well plate at 200 µL/well, and the plate was incubated overnight in a cell incubator.
After the cells were attached to the well, for the human prostate cancer cells LNCaP group, test compounds (0.1 μM, 0.3 μM, 1 μM, 3 μM, 10 μM, and 30 μM) and DHT (1 nM, inducing the expression of AR) were added to the 96-well plate, and the plate was incubated for another 5 days; for the human prostate cancer cells 22Rvl group, test compounds (0.1 μM, 0.3 μM, 1 μM, 3 μM, 10 μM, and 30 μM) were added to the 96-well plate, and the plate was incubated for another 5 days. […] The 96-well plate was equilibrated at room temperature for 30 mins. The cell viability was detected by using a CTG method. Before detection, CellTiter-Glo® Buffer and a substrate thereof (collectively called CTG reagent) were thawed and equilibrated to room temperature. Then, […] of Buffer was gently mixed with the substrate to form a homogeneous solution. The homogeneous solution was added to the 96-well plate at 100 µL/well, and the 96-well plate was incubated on a shaker for 15 mins. The fluorescence value in each well was then detected. The detection method for the fluorescence value in each well was as follows: after adding the CTG reagent, luminescence detection (integration time: 500 ms) was performed by using a correspondingly equipped multi-mode microplate reader (M200Pro, TECAN, Switzerland) according to the supplier's manual to quantify the effect of the inhibitor on the cell viability. For data analysis, an assay background value was subtracted from all data points, which was determined in wells containing the medium but no cells. Data were processed using the XLfit software (XLfit 5.2., IDBS, UK), and IC50 values of the test compounds were calculated.

Where two headings read alike, the source gives them in different places.

Turning to `COc1ccc(/C=C/C(=O)C2(C(=O)/C=C/c3ccc(OC)c(OC)c3)CCC(=O)CC2)cc1OC` [Compound 7], in series [1] (in vivo), the AUC(0-t) came to 460 ng·h/mL, the highest concentration (Cmax) came to 298 ng/mL, the time of peak concentration (Tmax) came out at 11.4 min and the half-life was 177 min. The concentration for half-maximal inhibition (IC50) in series [2] stood at 830 nM.

Take `COc1ccc(/C=C/C(=O)C2(C(=O)/C=C/c3ccc(OC)c(OC)c3)CCC(F)(F)CC2)cc1OC` [Compound 8]: in series [1] (SD rats, oral, same dose, FIG. 2), the “AUClast in rats (comparison in words)” value is given as “higher AUClast than that of compound 7”. In series [1] (plasma), the AUC(0-t) was 1010 ng·h/mL, the highest level (Cmax) was 282 ng/mL, the Tmax was found to be 19.8 min and the half-life was 94.2 min. Further, the IC50 in series [2] (1 nM DHT, 5 days, CTG) came to 610 nM.
